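Each compound was tested at five concentrations against cells in 96-well plates for 48 hours. Here, GI50 denotes the concentration required for 50% inhibition of growth. At the TGI there is no net growth.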
How the values were obtained:
Assay in all cases: NCI anticancer screen, dose series, 48 h
OVCAR-8 ovarian = test system: OVCAR-8 ovarian
OVCAR-3 ovarian = test system: OVCAR-3 ovarian
NCI/ADR-RES ovarian = test system: NCI/ADR-RES ovarian
SN12C renal = test system: SN12C renal
HT29 colon = test system: HT29 colon
RXF 393 renal = test system: RXF 393 renal
SNB-75 CNS = test system: SNB-75 CNS
MCF7 breast = test system: MCF7 breast
SNB-19 CNS = test system: SNB-19 CNS
HOP-62 NSCLC = test system: HOP-62 NSCLC
HCT-15 colon = test system: HCT-15 colon
SR leukemia = test system: SR leukemia
SK-OV-3 ovarian = test system: SK-OV-3 ovarian
NCI-H226 lung = test system: NCI-H226 lung
NCI-H460 lung = test system: NCI-H460 lung
A498 renal = test system: A498 renal
CAKI-1 renal = test system: CAKI-1 renal
SF-295 CNS = test system: SF-295 CNS
DU-145 prostate = test system: DU-145 prostate
NCI-H23 lung = test system: NCI-H23 lung
HCT-116 colon = test system: HCT-116 colon
HL-60(TB) leukemia = test system: HL-60(TB) leukemia
A549 NSCLC = test system: A549 NSCLC
OVCAR-4 ovarian = test system: OVCAR-4 ovarian
K-562 leukemia = test system: K-562 leukemia
PC-3 prostate = test system: PC-3 prostate
NCI-H522 lung = test system: NCI-H522 lung
M14 melanoma = test system: M14 melanoma
U251 CNS = test system: U251 CNS
SK-MEL-28 melanoma = test system: SK-MEL-28 melanoma
SK-MEL-5 melanoma = test system: SK-MEL-5 melanoma
SF-268 CNS = test system: SF-268 CNS
BT-549 breast = test system: BT-549 breast
UACC-62 melanoma = test system: UACC-62 melanoma
EKVX NSCLC = test system: EKVX NSCLC
T-47D breast = test system: T-47D breast
RPMI-8226 leukemia = test system: RPMI-8226 leukemia
LOX IMVI melanoma = test system: LOX IMVI melanoma
IGROV1 ovarian = test system: IGROV1 ovarian
ACHN renal = test system: ACHN renal
COLO 205 colon = test system: COLO 205 colon
KM12 colon = test system: KM12 colon
UO-31 renal = test system: UO-31 renal
SF-539 CNS = test system: SF-539 CNS
MOLT-4 leukemia = test system: MOLT-4 leukemia
SW-620 colon = test system: SW-620 colon
SK-MEL-2 melanoma = test system: SK-MEL-2 melanoma
HOP-92 NSCLC = test system: HOP-92 NSCLC
UACC-257 melanoma = test system: UACC-257 melanoma
MDA-MB-435 = test system: MDA-MB-435
OVCAR-5 ovarian = test system: OVCAR-5 ovarian
MDA-MB-231 breast = test system: MDA-MB-231 breast
HS 578T breast = test system: HS 578T breast
786-0 renal = test system: 786-0 renal

O=c1c2cc(-c3ccccc3)sc2ncn1Cc1ccc(Cl)c(Cl)c1
GI50 (OVCAR-8 ovarian): 18.6 µM | TGI (OVCAR-8 ovarian): > 100 µM | GI50 (OVCAR-3 ovarian): 15.8 µM | TGI (OVCAR-3 ovarian): 36.2 µM | GI50 (NCI/ADR-RES ovarian): 19.5 µM | TGI (NCI/ADR-RES ovarian): 59 µM | GI50 (SN12C renal): 13.1 µM | TGI (SN12C renal): 39.1 µM | GI50 (HT29 colon): 67.7 µM | TGI (HT29 colon): > 100 µM | GI50 (RXF 393 renal): 17.1 µM | TGI (RXF 393 renal): 48.2 µM | GI50 (SNB-75 CNS): 18.1 µM | TGI (SNB-75 CNS): 48.7 µM | GI50 (MCF7 breast): 12.1 µM | TGI (MCF7 breast): > 100 µM | GI50 (SNB-19 CNS): 26.8 µM | TGI (SNB-19 CNS): > 100 µM | GI50 (HOP-62 NSCLC): 10.3 µM | TGI (HOP-62 NSCLC): 24.7 µM | GI50 (HCT-15 colon): 845 nM | TGI (HCT-15 colon): > 100 µM | GI50 (SR leukemia): 5.14 µM | TGI (SR leukemia): 17.9 µM | GI50 (SK-OV-3 ovarian): 19.4 µM | TGI (SK-OV-3 ovarian): 58 µM | GI50 (NCI-H226 lung): 13.1 µM | TGI (NCI-H226 lung): 87.2 µM | GI50 (NCI-H460 lung): 12.1 µM | TGI (NCI-H460 lung): > 100 µM | GI50 (A498 renal): 19.4 µM | TGI (A498 renal): 50.3 µM | GI50 (CAKI-1 renal): 16.4 µM | TGI (CAKI-1 renal): 49.1 µM | GI50 (SF-295 CNS): 12.3 µM | TGI (SF-295 CNS): 30.6 µM | GI50 (DU-145 prostate): 32.9 µM | TGI (DU-145 prostate): > 100 µM | GI50 (NCI-H23 lung): 17.3 µM | TGI (NCI-H23 lung): 44.2 µM | GI50 (HCT-116 colon): 15 µM | TGI (HCT-116 colon): 41.1 µM | GI50 (HL-60(TB) leukemia): 14.9 µM | TGI (HL-60(TB) leukemia): 34.1 µM | GI50 (A549 NSCLC): 18 µM | TGI (A549 NSCLC): > 100 µM | GI50 (OVCAR-4 ovarian): 12.5 µM | TGI (OVCAR-4 ovarian): 38 µM | GI50 (K-562 leukemia): 20.7 µM | TGI (K-562 leukemia): > 100 µM | GI50 (PC-3 prostate): 19.1 µM | TGI (PC-3 prostate): 55.1 µM | GI50 (NCI-H522 lung): 6.43 µM | TGI (NCI-H522 lung): 53.1 µM | GI50 (M14 melanoma): 25.7 µM | TGI (M14 melanoma): > 100 µM | GI50 (U251 CNS): 15.5 µM | TGI (U251 CNS): 38.6 µM | GI50 (SK-MEL-28 melanoma): 45.5 µM | TGI (SK-MEL-28 melanoma): > 100 µM | GI50 (SK-MEL-5 melanoma): 34.2 µM | TGI (SK-MEL-5 melanoma): > 100 µM | GI50 (SF-268 CNS): 26 µM | TGI (SF-268 CNS): 80.3 µM | GI50 (BT-549 breast): 21 µM | TGI (BT-549 breast): 60.4 µM | GI50 (UACC-62 melanoma): 13 µM | TGI (UACC-62 melanoma): 28 µM | GI50 (EKVX NSCLC): 16.3 µM | TGI (EKVX NSCLC): > 100 µM | GI50 (T-47D breast): 31.8 µM | TGI (T-47D breast): > 100 µM | GI50 (RPMI-8226 leukemia): 36.8 µM | TGI (RPMI-8226 leukemia): > 100 µM | GI50 (LOX IMVI melanoma): 51.9 µM | TGI (LOX IMVI melanoma): > 100 µM | GI50 (IGROV1 ovarian): 1930 nM | TGI (IGROV1 ovarian): 34.9 µM | GI50 (ACHN renal): 22.7 µM | TGI (ACHN renal): 75.6 µM | GI50 (COLO 205 colon): > 100 µM | TGI (COLO 205 colon): > 100 µM | GI50 (KM12 colon): 320 nM | TGI (KM12 colon): 6.38 µM | GI50 (UO-31 renal): 31.8 µM | TGI (UO-31 renal): > 100 µM | GI50 (SF-539 CNS): 14 µM | TGI (SF-539 CNS): 43 µM | GI50 (MOLT-4 leukemia): 18.9 µM | TGI (MOLT-4 leukemia): 54.9 µM | GI50 (SW-620 colon): > 100 µM | TGI (SW-620 colon): > 100 µM | GI50 (SK-MEL-2 melanoma): 12.2 µM | TGI (SK-MEL-2 melanoma): 57.3 µM | GI50 (HOP-92 NSCLC): 16.2 µM | TGI (HOP-92 NSCLC): 40.5 µM | GI50 (UACC-257 melanoma): 62.2 µM | TGI (UACC-257 melanoma): > 100 µM | GI50 (MDA-MB-435): 40.6 µM | TGI (MDA-MB-435): > 100 µM | GI50 (OVCAR-5 ovarian): 5.46 µM | TGI (OVCAR-5 ovarian): > 100 µM | GI50 (MDA-MB-231 breast): 3.92 µM | TGI (MDA-MB-231 breast): 25 µM | GI50 (HS 578T breast): 11 µM | TGI (HS 578T breast): 45.1 µM | GI50 (786-0 renal): 14.2 µM | TGI (786-0 renal): 43.3 µM

From PubChem BioAssay (NCI)
